Measurements taken from patent US20080280879A1, “SUBSTITUTED HETEROCYCLIC DERIVATIVES AND THEIR PHARMACEUTICAL USE AND COMPOSITIONS” (priority 2007, published 2008).
In brackets after ≈: the same amount, converted by molar mass.

What was measured:
Type in all cases: cell-based, Staphylococcus aureus
Staph aureus 2812 = assay: MIC, microtiter broth dilution (CLSI M7-A7), Assay 1, Table 12 column E, no serum; conditions: for MIC: Staphylococcus aureus, 2812, Staph aureus 2812, Assay 1, no serum; for MIC, column E: Staph aureus 2812, Assay 1, no serum
In short: (§1)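 Testing followed the CLSI M7-A7 dilution standard in microtiter trays, with serum conditions using Mueller-Hinton Broth plus 50% pooled inactivated human serum. Values are the lowest concentrations with no macroscopically visible growth.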

Staph aureus 1095 MRSA = assay: MIC, microtiter broth dilution (CLSI M7-A7), Assay 1, Table 12 column A, no serum; conditions: Assay 1, no serum; for MIC: Staphylococcus aureus, MRSA
In short: as §1

Staph aureus 1146 [1] = assay: MIC, microtiter broth dilution (CLSI M7-A7), Assay 1, Table 12 column B, no serum; conditions: for MIC: Staphylococcus aureus, 1146, Staph aureus 1146, Assay 1, no serum; for MIC, column B: Staph aureus 1146, Assay 1, no serum
In short: as §1

Staph aureus 2811 = assay: MIC, microtiter broth dilution (CLSI M7-A7), Assay 1, Table 12 column D, no serum; conditions: for MIC: Staphylococcus aureus, 2811, Staph aureus 2811, Assay 1, no serum; for MIC, column D: Staph aureus 2811, Assay 1, no serum
In short: as §1

Staph aureus 1146 [2] = assay: MIC in Mueller-Hinton Broth with 50% pooled inactivated human serum, Assay 1, Table 12; conditions: for MIC: Staphylococcus aureus, 1146, Staph aureus 1146, Assay 1, 50% human serum, read-out: MIC, column C; for MIC, column C: Staph aureus 1146, Assay 1, 50% human serum
In short: as §1

Structure (SMILES): COc1ccc2nccc([C@H](O)CC[C@@H]3CCN(C4CC(C5CCCC5)C4)C[C@@H]3C(=O)O)c2c1 (stereo partly drawn) [Example 46, (3R,4R)-1-(3-cyclopentylcyclobutyl)-4-[(3R)-3-hydroxy-3-(6-methoxyquinolin-4-yl)propyl]piperidine-3-carboxylic acid]
- MIC (Staph aureus 2812): 2 µg/mL (≈ 4.29 µM)
- MIC (Staph aureus 1095 MRSA): 1 µg/mL (≈ 2.14 µM)
- MIC (Staph aureus 1146 [1]): 1 µg/mL (≈ 2.14 µM)
- MIC (Staph aureus 2811): 1 µg/mL (≈ 2.14 µM)
- MIC (Staph aureus 1146 [2]): 8 µg/mL (≈ 17.1 µM)

Structure (SMILES): COc1ccc2ncc(Cl)c([C@@H](O)CNC3(C(=O)O)CCCN(C4CC(c5ccccc5)C4)CC3)c2c1 (single isomer, unassigned) [Example 147]
- MIC (Staph aureus 2812): 1 µg/mL (≈ 1.91 µM)
- MIC (Staph aureus 1095 MRSA): 8 µg/mL (≈ 15.3 µM)
- MIC (Staph aureus 1146 [1]): 1 µg/mL (≈ 1.91 µM)
- MIC (Staph aureus 2811): 1 µg/mL (≈ 1.91 µM)
- MIC (Staph aureus 1146 [2]): 4 µg/mL (≈ 7.63 µM)

Structure (SMILES): COc1ccc2nccc(C(O)CC[C@@H]3CCN(C4CC(c5nc(CC6CC6)no5)C4)C[C@@H]3C(=O)O)c2c1 (stereo partly drawn) [Example 170, (3R,4R)-1-{3-[3-(cyclopropylmethyl)-1,2,4-oxadiazol-5-yl]cyclobutyl}-4-[3-hydroxy-3-(6-methoxyquinolin-4-yl)propyl]piperidine-3-carboxylic acid]
- MIC (Staph aureus 2812): > 64 µg/mL
- MIC (Staph aureus 1095 MRSA): > 64 µg/mL
- MIC (Staph aureus 1146 [1]): > 64 µg/mL
- MIC (Staph aureus 2811): > 64 µg/mL
- MIC (Staph aureus 1146 [2]): > 64 µg/mL

Structure (SMILES): COc1ccc2ncc(F)c(C(O)CC[C@@H]3CCN(C4CC(c5cc(F)ccc5F)C4)C[C@@H]3C(=O)O)c2n1 (stereo partly drawn) [Example 218, (3R,4R)-1-[3-(2,5-difluorophenyl)cyclobutyl]-4-[3-(3-fluoro-6-methoxy-1,5-naphthyridin-4-yl)-3-hydroxypropyl]piperidine-3-carboxylic acid]
- MIC, column E (Staph aureus 2812): <0.0625 µg/mL
- MIC, column A (Staph aureus 1095 MRSA): 0.125 µg/mL (≈ 0.236 µM)
- MIC, column B (Staph aureus 1146 [1]): <0.0625 µg/mL
- MIC, column D (Staph aureus 2811): <0.0625 µg/mL
- MIC, column C (Staph aureus 1146 [2]): 2.00 µg/mL (≈ 3.78 µM)

Structure (SMILES): COc1ccc2ncc(Cl)c(C(O)CCC3(C(=O)O)CCN(C4CC(c5ccccc5)C4)C3)c2c1 (centres unmarked) [Example 175, 3-[3-(3-chloro-6-methoxyquinolin-4-yl)-3-hydroxypropyl]-1-(3-phenylcyclobutyl)pyrrolidine-3-carboxylic acid]
- MIC (Staph aureus 2812): < 0.0625 µg/mL
- MIC (Staph aureus 1095 MRSA): 0.5 µg/mL (≈ 1.01 µM)
- MIC (Staph aureus 1146 [1]): < 0.0625 µg/mL
- MIC (Staph aureus 2811): < 0.0625 µg/mL
- MIC (Staph aureus 1146 [2]): 4 µg/mL (≈ 8.08 µM)

Structure (SMILES): COc1ccc2ncc(Cl)c(CCCC3(C(=O)O)CCN(C4CC(c5ccccc5)C4)CC3O)c2c1 (centres unmarked) [Example 109, 4-[3-(3-chloro-6-methoxyquinolin-4-yl)propyl]-3-hydroxy-1-(3-phenylcyclobutyl)piperidine-4-carboxylic acid]
- MIC (Staph aureus 2812): 1 µg/mL (≈ 1.96 µM)
- MIC (Staph aureus 1095 MRSA): 1 µg/mL (≈ 1.96 µM)
- MIC (Staph aureus 1146 [1]): 0.5 µg/mL (≈ 0.982 µM)
- MIC (Staph aureus 2811): 0.25 µg/mL (≈ 0.491 µM)
- MIC (Staph aureus 1146 [2]): > 64 µg/mL

Structure (SMILES): COc1ccc2nccc(C(O)CC[C@@H]3CCN(C4CC(O)(c5ccccc5)C4)C[C@@H]3C(=O)O)c2c1 (mixture of isomers) [Example 95, (3R,4R)-4-[3-hydroxy-3-(6-methoxyquinolin-4-yl)propyl]-1-(3-hydroxy-3-phenylcyclobutyl)piperidine-3-carboxcylic acid]
- MIC, column E (Staph aureus 2812): >64 µg/mL
- MIC, column A (Staph aureus 1095 MRSA): >64 µg/mL
- MIC, column B (Staph aureus 1146 [1]): 16 µg/mL
- MIC, column D (Staph aureus 2811): >64 µg/mL
- MIC, column C (Staph aureus 1146 [2]): >64 µg/mL

Structure (SMILES): COc1ccc2nccc(C(O)CC[C@@H]3CCN(C4CN(C5CCCCC5)C4)C[C@@H]3C(=O)O)c2c1 (stereo partly drawn) [Example 131, (3R,4R)-1-(1-cyclohexylazetidin-3-yl)-4-[3-hydroxy-3-(6-methoxyquinolin-4-yl)propyl]piperidine-3-carboxylic acid]
- MIC (Staph aureus 2812): > 64 µg/mL
- MIC (Staph aureus 1095 MRSA): > 64 µg/mL
- MIC (Staph aureus 1146 [1]): > 64 µg/mL
- MIC (Staph aureus 2811): > 64 µg/mL
- MIC (Staph aureus 1146 [2]): > 64 µg/mL

Structure (SMILES): COc1ccc2nccc(C(O)CC[C@@H]3CCN(C4CCN(c5ccccc5)C4)C[C@@H]3C(=O)O)c2c1 (stereo partly drawn) [Example 185, (3R,4R)-4-[3-hydroxy-3-(6-methoxyquinolin4-yl)propyl]-1-(1-phenylpyrrolidin-3-yl)piperidine-3-carboxylic acid]
- MIC (Staph aureus 2812): 4 µg/mL (≈ 8.17 µM)
- MIC (Staph aureus 1095 MRSA): 8 µg/mL (≈ 16.3 µM)
- MIC (Staph aureus 1146 [1]): 2 µg/mL (≈ 4.08 µM)
- MIC (Staph aureus 2811): 8 µg/mL (≈ 16.3 µM)
- MIC (Staph aureus 1146 [2]): > 64 µg/mL

Structure (SMILES): COc1ccc2ncc(Cl)c(C(O)CC[C@@H]3CCN(C4CC(c5ccccc5)C4)C[C@@H]3C(=O)O)c2c1 (stereo partly drawn) [Example 187, (3R,4R)-4-[3-(3-chloro-6-methoxyquinolin-4-yl)-3-hydroxypropyl]-1-(3-phenylcyclobutyl)piperidine-3-carboxylic acid]
- MIC (Staph aureus 2812): < 0.0625 µg/mL
- MIC (Staph aureus 1095 MRSA): < 0.0625 µg/mL
- MIC (Staph aureus 1146 [1]): < 0.0625 µg/mL
- MIC (Staph aureus 2811): < 0.0625 µg/mL
- MIC, column C (Staph aureus 1146 [2]): 1.00 µg/mL (≈ 1.96 µM)
